Measured values published in the supplement of paper PMC10307832.

Legend:
Test in all cases: relative viability (nuclei count vs DMSO), 5 days (fraction); higher = more cells survive
Sunitinib + Pictilisib = compound: CCN(CC)CCNC(=O)c1c(C)[nH]c(/C=C2\C(=O)Nc3ccc(F)cc32)c1C [Sunitinib] + CS(=O)(=O)N1CCN(Cc2cc3nc(-c4cccc5[nH]ncc45)nc(N4CCOCC4)c3s2)CC1 [Pictilisib] (partner 1 µM)
How it was run: (§1)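 After 5 days of treatment, lung cancer cells in 1536-well plates were fixed and stained in a single step (final 0.05% Triton X-100, 1% formaldehyde, 1 ug/ml Hoechst) and their nuclei counted on 4× images. Treatment had been applied by pin tool the day after seeding as one drug alone or as a fixed anchor-drug dose with five library-drug doses (not always all listed) in √10 steps. Relative viability is the nuclei count of treated wells divided by that of vehicle wells, and values are medians of duplicate plates.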

Sunitinib + Decitabine = compound: CCN(CC)CCNC(=O)c1c(C)[nH]c(/C=C2\C(=O)Nc3ccc(F)cc32)c1C [Sunitinib] + Nc1ncn([C@H]2C[C@H](O)[C@@H](CO)O2)c(=O)n1 [Decitabine] (partner 2 µM)
How it was run: as §1

Sunitinib + Crizotinib = compound: CCN(CC)CCNC(=O)c1c(C)[nH]c(/C=C2\C(=O)Nc3ccc(F)cc32)c1C [Sunitinib] + C[C@@H](Oc1cc(-c2cnn(C3CCNCC3)c2)cnc1N)c1c(Cl)ccc(F)c1Cl [Crizotinib] (partner 1 µM)
How it was run: as §1

Sunitinib + Alpelisib = compound: CCN(CC)CCNC(=O)c1c(C)[nH]c(/C=C2\C(=O)Nc3ccc(F)cc32)c1C [Sunitinib] + Cc1nc(NC(=O)N2CCC[C@H]2C(N)=O)sc1-c1ccnc(C(C)(C)C(F)(F)F)c1 [Alpelisib] (partner 2 µM)
How it was run: as §1

Sunitinib + Phenformin = compound: CCN(CC)CCNC(=O)c1c(C)[nH]c(/C=C2\C(=O)Nc3ccc(F)cc32)c1C [Sunitinib] + N=C(N)NC(=N)NCCc1ccccc1 [Phenformin] (partner 250 µM)
How it was run: as §1

Sunitinib + Lapatinib = compound: CCN(CC)CCNC(=O)c1c(C)[nH]c(/C=C2\C(=O)Nc3ccc(F)cc32)c1C [Sunitinib] + CS(=O)(=O)CCNCc1ccc(-c2ccc3ncnc(Nc4ccc(OCc5cccc(F)c5)c(Cl)c4)c3c2)o1 [Lapatinib] (partner 2 µM)
How it was run: as §1

Sunitinib + Olaparib = compound: CCN(CC)CCNC(=O)c1c(C)[nH]c(/C=C2\C(=O)Nc3ccc(F)cc32)c1C [Sunitinib] + O=C(c1cc(Cc2n[nH]c(=O)c3ccccc23)ccc1F)N1CCN(C(=O)C2CC2)CC1 [Olaparib] (partner 8 µM)
How it was run: as §1

Sunitinib + Navitoclax = compound: CCN(CC)CCNC(=O)c1c(C)[nH]c(/C=C2\C(=O)Nc3ccc(F)cc32)c1C [Sunitinib] + CC1(C)CCC(c2ccc(Cl)cc2)=C(CN2CCN(c3ccc(C(=O)NS(=O)(=O)c4ccc(N[C@H](CCN5CCOCC5)CSc5ccccc5)c(S(=O)(=O)C(F)(F)F)c4)cc3)CC2)C1 [Navitoclax] (partner 0.5 µM)
How it was run: as §1

Sunitinib + Foretinib = compound: CCN(CC)CCNC(=O)c1c(C)[nH]c(/C=C2\C(=O)Nc3ccc(F)cc32)c1C [Sunitinib] + COc1cc2c(Oc3ccc(NC(=O)C4(C(=O)Nc5ccc(F)cc5)CC4)cc3F)ccnc2cc1OCCCN1CCOCC1 [Foretinib] (partner 0.25 µM)
How it was run: as §1

Sunitinib + Linsitinib = compound: CCN(CC)CCNC(=O)c1c(C)[nH]c(/C=C2\C(=O)Nc3ccc(F)cc32)c1C [Sunitinib] + C[C@]1(O)C[C@@H](c2nc(-c3ccc4ccc(-c5ccccc5)nc4c3)c3c(N)nccn32)C1 [Linsitinib] (partner 1 µM)
How it was run: as §1

Sunitinib = compound: CCN(CC)CCNC(=O)c1c(C)[nH]c(/C=C2\C(=O)Nc3ccc(F)cc32)c1C [Sunitinib]
How it was run: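 After an overnight hold at 37 °C, lung cancer cell lines in 1536-well plates were pinned with five library-drug doses (not always all listed), each √10 from the next, on vehicle-anchored plates. The cells stayed 5 days without fresh medium, then a one-step fix, permeabilisation and Hoechst stain preceded 4× imaging and MetaXpress nuclear counts. A plate passed only with control CV under 25% and at least one doubling. Viability is the median, over plates, of treated-well nuclei relative to vehicle-well nuclei.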

Sunitinib + Luminespib = compound: CCN(CC)CCNC(=O)c1c(C)[nH]c(/C=C2\C(=O)Nc3ccc(F)cc32)c1C [Sunitinib] + CCNC(=O)c1noc(-c2cc(C(C)C)c(O)cc2O)c1-c1ccc(CN2CCOCC2)cc1 [Luminespib] (partner 0.01 µM)
How it was run: as §1

Sunitinib + Dasatinib = compound: CCN(CC)CCNC(=O)c1c(C)[nH]c(/C=C2\C(=O)Nc3ccc(F)cc32)c1C [Sunitinib] + Cc1nc(Nc2ncc(C(=O)Nc3c(C)cccc3Cl)s2)cc(N2CCN(CCO)CC2)n1 [Dasatinib] (partner 0.075 µM)
How it was run: as §1

Sunitinib + OSI-027 = compound: CCN(CC)CCNC(=O)c1c(C)[nH]c(/C=C2\C(=O)Nc3ccc(F)cc32)c1C [Sunitinib] + COc1cccc2cc(-c3nc([C@H]4CC[C@H](C(=O)O)CC4)n4ncnc(N)c34)[nH]c12 [OSI-027] (partner 0.5 µM)
How it was run: as §1

Sunitinib + Tozasertib = compound: CCN(CC)CCNC(=O)c1c(C)[nH]c(/C=C2\C(=O)Nc3ccc(F)cc32)c1C [Sunitinib] + Cc1cc(Nc2cc(N3CCN(C)CC3)nc(Sc3ccc(NC(=O)C4CC4)cc3)n2)n[nH]1 [Tozasertib] (partner 0.1 µM)
How it was run: as §1

A549 was tested, and the relative viability (Sunitinib + Pictilisib; first compound 0.02 µM) was 0.457, the relative viability (Sunitinib + Pictilisib; first compound 0.06325 µM) was 0.546 and the relative viability (Sunitinib + Pictilisib; first compound 0.2 µM) was 0.589. The relative viability (Sunitinib + Pictilisib; first compound 0.6325 µM) was 0.631, the relative viability (Sunitinib + Pictilisib; first compound 2 µM) was 0.412 and the relative viability (Sunitinib + Decitabine; first compound 0.02 µM) was 0.248. It also gave a relative viability (Sunitinib + Decitabine; first compound 0.06325 µM) of 0.293, a relative viability (Sunitinib + Decitabine; first compound 0.2 µM) of 0.252 and a relative viability (Sunitinib + Decitabine; first compound 0.6325 µM) of 0.272. It also gave a relative viability (Sunitinib + Decitabine; first compound 2 µM) of 0.306, a relative viability (Sunitinib + Crizotinib; first compound 0.02 µM) of 0.722 and a relative viability (Sunitinib + Crizotinib; first compound 0.06325 µM) of 0.816. For the same cell line, the relative viability (Sunitinib + Crizotinib; first compound 0.6325 µM) was 0.906, the relative viability (Sunitinib + Crizotinib; first compound 2 µM) was 0.711 and the relative viability (Sunitinib + Alpelisib; first compound 0.02 µM) was 0.686. It also gave a relative viability (Sunitinib + Alpelisib; first compound 0.06325 µM) of 0.825, a relative viability (Sunitinib + Alpelisib; first compound 0.2 µM) of 0.884 and a relative viability (Sunitinib + Alpelisib; first compound 0.6325 µM) of 0.872. The relative viability (Sunitinib + Alpelisib; first compound 2 µM) was 0.776, the relative viability (Sunitinib + Phenformin; first compound 0.02 µM) was 0.166 and the relative viability (Sunitinib + Phenformin; first compound 0.06325 µM) was 0.214. For the same cell line, the relative viability (Sunitinib + Phenformin; first compound 0.2 µM) was 0.148, the relative viability (Sunitinib + Phenformin; first compound 0.6325 µM) was 0.126 and the relative viability (Sunitinib + Phenformin; first compound 2 µM) was 0.155. It also gave a relative viability (Sunitinib + Lapatinib; first compound 0.02 µM) of 1.03, a relative viability (Sunitinib + Lapatinib; first compound 0.2 µM) of 1.21 and a relative viability (Sunitinib + Lapatinib; first compound 0.6325 µM) of 1.03. The relative viability (Sunitinib + Olaparib; first compound 0.02 µM) was 0.282, the relative viability (Sunitinib + Olaparib; first compound 0.06325 µM) was 0.326 and the relative viability (Sunitinib + Olaparib; first compound 0.2 µM) was 0.348. For the same cell line, the relative viability (Sunitinib + Olaparib; first compound 0.6325 µM) was 0.484, the relative viability (Sunitinib + Olaparib; first compound 2 µM) was 0.383 and the relative viability (Sunitinib + Navitoclax; first compound 0.02 µM) was 1.16. It also gave a relative viability (Sunitinib + Navitoclax; first compound 0.06325 µM) of 1.3, a relative viability (Sunitinib + Navitoclax; first compound 0.2 µM) of 1.36 and a relative viability (Sunitinib + Navitoclax; first compound 2 µM) of 1.07. For the same cell line, the relative viability (Sunitinib + Foretinib; first compound 0.02 µM) was 1.06, the relative viability (Sunitinib + Foretinib; first compound 0.06325 µM) was 0.951 and the relative viability (Sunitinib + Foretinib; first compound 0.2 µM) was 1.09. It also gave a relative viability (Sunitinib + Foretinib; first compound 0.6325 µM) of 1.05, a relative viability (Sunitinib + Foretinib; first compound 2 µM) of 0.974 and a relative viability (Sunitinib + Linsitinib; first compound 0.02 µM) of 0.563. It also gave a relative viability (Sunitinib + Linsitinib; first compound 0.06325 µM) of 0.638, a relative viability (Sunitinib + Linsitinib; first compound 0.2 µM) of 0.669 and a relative viability (Sunitinib + Linsitinib; first compound 0.6325 µM) of 0.716. It also gave a relative viability (Sunitinib + Linsitinib; first compound 2 µM) of 0.579, a relative viability (Sunitinib; 0.02 µM) of 0.945 and a relative viability (Sunitinib; 0.06325 µM) of 1.1. For the same cell line, the relative viability (Sunitinib; 0.2 µM) was 1.23, the relative viability (Sunitinib; 0.6325 µM) was 1.06 and the relative viability (Sunitinib; 2 µM) was 0.972.

NCI-H1623 gave a relative viability (Sunitinib + Luminespib; first compound 0.02 µM) of 0.545, a relative viability (Sunitinib + Luminespib; first compound 0.06325 µM) of 0.545 and a relative viability (Sunitinib + Luminespib; first compound 0.2 µM) of 0.682. For the same cell line, the relative viability (Sunitinib + Luminespib; first compound 0.6325 µM) was 0.611, the relative viability (Sunitinib + Luminespib; first compound 2 µM) was 0.464 and the relative viability (Sunitinib + Dasatinib; first compound 0.02 µM) was 0.612. It also gave a relative viability (Sunitinib + Dasatinib; first compound 0.06325 µM) of 0.507, a relative viability (Sunitinib + Dasatinib; first compound 0.2 µM) of 0.574 and a relative viability (Sunitinib + Dasatinib; first compound 0.6325 µM) of 0.58. The relative viability (Sunitinib + Dasatinib; first compound 2 µM) was 0.543, the relative viability (Sunitinib + Phenformin; first compound 0.02 µM) was 0.649 and the relative viability (Sunitinib + Phenformin; first compound 0.06325 µM) was 0.499. The relative viability (Sunitinib + Phenformin; first compound 0.2 µM) was 0.581, the relative viability (Sunitinib + Phenformin; first compound 0.6325 µM) was 0.675 and the relative viability (Sunitinib + Phenformin; first compound 2 µM) was 0.49. For the same cell line, the relative viability (Sunitinib + OSI-027; first compound 0.02 µM) was 0.45, the relative viability (Sunitinib + OSI-027; first compound 0.06325 µM) was 0.393 and the relative viability (Sunitinib + OSI-027; first compound 0.2 µM) was 0.474. The relative viability (Sunitinib + OSI-027; first compound 0.6325 µM) was 0.407, the relative viability (Sunitinib + OSI-027; first compound 2 µM) was 0.358 and the relative viability (Sunitinib + Foretinib; first compound 0.02 µM) was 0.83. For the same cell line, the relative viability (Sunitinib + Foretinib; first compound 0.06325 µM) was 0.843, the relative viability (Sunitinib + Foretinib; first compound 0.2 µM) was 0.955 and the relative viability (Sunitinib + Foretinib; first compound 0.6325 µM) was 0.977. For the same cell line, the relative viability (Sunitinib + Foretinib; first compound 2 µM) was 0.872, the relative viability (Sunitinib + Tozasertib; first compound 0.02 µM) was 0.461 and the relative viability (Sunitinib + Tozasertib; first compound 0.06325 µM) was 0.434. The relative viability (Sunitinib + Tozasertib; first compound 0.2 µM) was 0.446, the relative viability (Sunitinib + Tozasertib; first compound 0.6325 µM) was 0.488 and the relative viability (Sunitinib + Tozasertib; first compound 2 µM) was 0.369. It also gave a relative viability (Sunitinib; 0.02 µM) of 0.98, a relative viability (Sunitinib; 0.06325 µM) of 0.96 and a relative viability (Sunitinib; 0.2 µM) of 0.994. It also gave a relative viability (Sunitinib; 2 µM) of 0.916.
